From US8497263B2, “Pyrrolinone derivative and pharmaceutical composition comprising the same” (Shionogi & Co., Ltd., priority 2007, dated 2013)

What was measured:
human P2X3 receptor = target: T1, human P2X3 receptor (Homo sapiens, UniProt P56373); test: Inhibition of ATP-induced calcium fluorescence (Fluo-3, FDSS 3000) in C6BU-1 cells stably expressing human P2X3 receptor; type: cell-based; details: C6BU-1 cell transfected with human P2X3 receptor gene; 40 nM ATP solution; Fluo-3 fluorescence intensity
T1 construct: expressed in transfected cells
T1 sequence (P56373 1-397): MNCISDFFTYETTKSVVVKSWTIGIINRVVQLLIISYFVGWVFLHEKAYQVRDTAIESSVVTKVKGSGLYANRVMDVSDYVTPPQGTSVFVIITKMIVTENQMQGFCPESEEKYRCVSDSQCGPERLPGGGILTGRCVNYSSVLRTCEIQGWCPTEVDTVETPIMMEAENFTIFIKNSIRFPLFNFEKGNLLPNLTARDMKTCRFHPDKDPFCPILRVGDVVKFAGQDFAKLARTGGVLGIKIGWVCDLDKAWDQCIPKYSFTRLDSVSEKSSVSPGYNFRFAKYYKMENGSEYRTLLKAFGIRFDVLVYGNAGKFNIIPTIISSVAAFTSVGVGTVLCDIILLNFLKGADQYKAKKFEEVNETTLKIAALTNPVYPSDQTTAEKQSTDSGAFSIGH
Method: Stably expressing cell line (C6BU-1 cell transfected with human P2X3 receptor gene (GenBank accession number Y07683)) was used. The cells were seeded in a 96-well microtiter plate at a concentration of 8000 cells/well and cultured in the medium (8.3% fetal bovine serum, 8.3% horse serum, 1% antibiotic and antifungal in DMEM) for one day at 37° C. under 5% carbon dioxide atmosphere. The medium was replaced with 4 μM Fluo-3-AM solution (pH7.5) containing 20 mM HEPES, 137 mM NaCl, 2.7 mM KCl, 0.9 mM MgCl2, 5.0 mM CaCl2, 5.6 mM D-glucose, 2.5 mM probenecid, 10% BSA, and 0.08% Pluronic F-127, and incubated at 37° C. under 5% dioxide carbon atmosphere for one hour. The plate was washed with washing buffer (20 mM HEPES, 137 mM NaCl, 2.7 mM KCl, 0.9 mM MgCl2, 5.0 mM CaCl2, 5.6 mM D-glucose, 2.5 mM probenecid, pH7.5), and each well was added with 40 μL of this buffer. The plate was placed in High-Throughput Screening System FDSS 3000 (Hamamatsu Photonics K.K.). Measurement of fluorescence intensity by FDSS 3000 was started, and 40 μL of DMSO solutions containing different concentrations of the test compound as prepared by dilution with dilution buffer (20 mM HEPES, 137 mM NaCl, 2.7 mM KCl, 0.9 mM MgCl2, 5.0 mM CaCl2, 5.6 mM D-glucose, 2.5 mM probenecid, 0.1% Pluronic F-127, pH7.5) were dispensed to each well through the built-in automatic dispenser. Five minutes after, 40 nM ATP solution (50 μL) prepared by dilution with the dilution buffer was dispensed through the built-in automatic dispenser, and the measurement of fluorescence intensity was continued for 3 min. For each well, the specific maximum fluorescence intensity was calculated as the ratio of the maximum fluorescence intensity after addition of the ATP solution to the fluorescence intensity at the starting of the measurement. […] FDSS software (Hamamatsu Photonics K.K.) was used for calculation of the specific maximum fluorescence intensity. IC50 was calculated using Microsoft™ Excel™ (Microsoft Corporation) and XLfit™ (ID Business Solutions Ltd.).

Row | IC50 (human P2X3 receptor) | melting point | SMILES
1 | 580 nM | 225 to 228 °C (dec.) | COc1ccc(C(=O)C2=C(O)C(=O)N(c3ccc(SC(F)(F)F)cc3)C2c2ccc(F)cc2)cc1 (centres unmarked) [Example I-45]
2 | 970 nM | 241 to 244 °C | COc1ccc(C(=O)C2=C(O)C(=O)N(c3ccc(OC(F)(F)F)cc3)C2c2ccc(F)cc2)cc1 (centres unmarked) [Example I-48]
3 | 3780 nM | 189 to 192 °C | COc1ccc(C(=O)C2=C(O)C(=O)N(c3ccc(C4=NCCO4)cc3)C2c2ccc(F)cc2)cc1 (centres unmarked) [Example I-69]
4 | 920 nM | 251 to 252 °C | CC(C)(C)c1n[nH]c2c1C(C1CCCCC1)N(c1ccc(-c3ccon3)cc1)C2=O (centres unmarked) [Example I-96, 3-tert-butyl-4-cyclohexyl-5-(4-isoxazol-3-ylphenyl)-4,5-dihydro-1H-pyrrolo[3,4-c]pyrazol-6-one]
